In patent US10111437B2, “Substituted guanidines as fungicides” (Nippon Soda Co., Ltd., priority 2015, dated 2018) one finds pest or weed control data, which are given here for 38 compounds.

Test [1] relates to Apple scab fungus (Venturia inaequalis). In words: Apple scab control test (foliar spray on apple seedlings). The format is in vivo. Particulars: 125 ppm active ingredient, sprayed on apple seedlings (variety Orin) before inoculation, vs untreated. The method, then: The dilution was sprayed to apple seedlings (variety “Orin”, 3 to 4 leaf stage) grown in clay pots. […] The control value was calculated by the following equation. [formula]

Test [2] has as its system cucumber gray mold fungus (Botrytis cinerea). Briefly: Cucumber gray mold control test (foliar spray on cucumber seedlings). Particulars: in Cucumis sativus, 96 h, read-out: control value.
Test [3] has as its system Tomato late blight fungus (Phytophthora infestans). Briefly: whole plant or invertebrate. The format is in vivo. Particulars: foliar, 96 h, read-out: control value.

Regarding `N=C(N)c1ccc(OCCCN2CCN(CCCOc3ccc(C(=N)N)cc3)C2=N)cc1` [compound 2, 4-[3-[3-[3-(4-carbamimidoylphenoxy)propyl]-2-imino-imidazolidin-1-yl]propoxy]benzamidine], the pest or weed control at 125 ppm in test [1], in test [2] and in test [3] was at least 75% throughout.

Consider `N=C(N)NCCCCCCN1CCN(CCCCCCNC(=N)N)C1=N` [compound 4, 1-[6-[3-(6-guanidinohexyl)-2-imino-imidazolidin-1-yl]hexyl]guanidine], for which the pest or weed control at 125 ppm in test [1] and in test [2] was at least 75% each time.

As to `N=C(N)NCCCCCCCNC(=N)NCCCCCCCNC(=N)N` [compound 12, 1,3-bis(7-guanidinoheptyl)guanidine], the pest or weed control at 125 ppm in test [1] and in test [2] was at least 75% each time.

`N=C(NCCCCCCCOc1ccc(C(=N)N)cc1)NCCCCCCCOc1ccc(C(=N)N)cc1` [compound 14, 4-[7-[[N-[7-(4-carbamimidoylphenoxy)heptyl]carbamimidoyl]amino]heptoxy]benzamidine]: the pest or weed control at 125 ppm in test [2] is at least 75%.

Take `N=C(NCCCOc1ccc(C(=N)N)cn1)NCCCOc1ccc(C(=N)N)cn1` [compound 17, 6,6′-((((iminomethylene)bis(azanediyl))bis (propane-3,1-diyl))bis(oxy))dinicotinimidamide]: the pest or weed control at 125 ppm in test [1] and in test [2] was at least 75% each time.

For the compound `N=C(N)c1ccc(OCCCn2ccn(CCCOc3ccc(C(=N)N)cc3)c2=N)cc1` [compound 20, 4-[3-[3-[3-(4-carbamimidoylphenoxy)propyl]-2-imino-imidazol-1-yl]propoxy]benzamidine], the pest or weed control at 125 ppm in test [2] is at least 75%.

In the case of `N=C(N)c1ccc(OCCCCn2c(=N)n(CCCCOc3ccc(C(=N)N)cc3)c3ccccc32)cc1` [compound 27, 4-[4-[3-[4-(4-carbamimidoylphenoxy)butyl]-2-imino-benzimidazol-1-yl]butoxy]benzamidine], the pest or weed control at 125 ppm in test [1], in test [2] and in test [3] was at least 75% throughout.

For the compound `N=C(N)NCCCCCCCNC(=N)NCCCCOc1ccc(C(=N)N)cc1` [compound 30, 4-[4-[[N-(7-guanidinoheptyl)carbamimidoyl]amino]butoxy]benzamidine], the pest or weed control at 125 ppm in test [1], in test [2] and in test [3] was at least 75% in each case.

In the case of `N=C(N)c1ccc(OCCCCn2ccn(CCCCOc3ccc(C(=N)N)cc3)c2=N)cc1` [compound 36, 4-[4-[3-[4-(4-carbamimidoylphenoxy)butyl]-2-imino-imidazol-1-yl]butoxy]benzamidine], the pest or weed control at 125 ppm in test [1], in test [2] and in test [3] was at least 75% throughout.

Regarding `N=C(N)c1ccc(OCCCCN2CCN(CCCCOc3ccc(C(=N)N)cc3)C2=N[N+](=O)[O-])cc1` [compound 38, 4-[4-[3-[4-(4-carbamimidoylphenoxy)butyl]-2-nitroimino-imidazolidin-1-yl]butoxy]benzamidine], the pest or weed control at 125 ppm in test [1] and in test [2] was at least 75% throughout.

Turning to `N=C(N)NCCCCCCCNC(=N)NCCCOc1ccc(C(=N)N)nn1` [compound 44, 6-(3-(3-(7-guanidinoheptyl)guanidino)propoxy) pyridazine-3-carboxamidine], the pest or weed control at 125 ppm in test [1], in test [2] and in test [3] was at least 75% each time.

Consider `N=C(N)c1ccc(OCCCCn2ccn(CCCCOc3ccc(C(=N)N)cn3)c2=NC(=O)C(F)(F)F)nc1` [compound 46, N-(1,3-bis(4-((5-carbamimidoylpyridin-2-yl)oxy)butyl)-1,3-dihydro-2H-imidazol-2-ylidene)-2,2,2-trifluoroacetamide], for which, in test [2], the pest or weed control at 125 ppm is at least 75%.

Take `N=C(N)c1ccc(OCCCn2ccn(CCCOc3ccc(C(=N)N)cc3Br)c2=N)c(Br)c1` [compound 54, 3-bromo-4-[3-[3-[3-(2-bromo-4-carbamimidoyl-phenoxy)propyl]-2-imino-imidazol-1-yl]propoxy]benzamidine]: the pest or weed control at 125 ppm in test [2] and in test [3] was at least 75% throughout.

In the case of `N=C(N)c1ccc(OCCCNC(=Nc2ccccc2)NCCCOc2ccc(C(=N)N)cc2)cc1` [compound 63, 4-[3-[[N-[3-(4-carbamimidoylphenoxy)propyl]-N′-phenyl-carbamimidoyl]amino]propoxy]benzamidine], the pest or weed control at 125 ppm in test [1] and in test [2] was at least 75% in each case.

Take `N=C(NCCCc1ccc(C(=N)N)cc1)NCCCc1ccc(C(=N)N)cc1` [compound 65, 4-[3-[[N-[3-(4-carbamimidoylphenyl)propyl]carbamimidoyl]amino]propyl]benzamidine]: the pest or weed control at 125 ppm in test [1] and in test [2] was at least 75% throughout.

Turning to `CC(C)(C)OC(=O)NC(=N)c1ccc(OCCn2ccn(CCOc3ccc(C(=N)NC(=O)OC(C)(C)C)cc3)c2=NC(=O)C(F)(F)F)cc1` [compound 73], the pest or weed control at 125 ppm in test [1] was at least 75%.

Regarding `N=c1n(CCCOc2ccc(C3=NCCCN3)cc2)ccn1CCCOc1ccc(C2=NCCCN2)cc1` [compound 76], the pest or weed control at 125 ppm in test [1], in test [2] and in test [3] was at least 75% in each case.

Turning to `N=C(NCCCOc1ccc(C2=NCCN2)cc1)NCCCOc1ccc(C2=NCCN2)cc1` [compound 78], the pest or weed control at 125 ppm in test [1] and in test [2] was at least 75% each time.

On to `N=C(NCCCc1cc2cc(C(=N)N)ccc2o1)NCCCc1cc2cc(C(=N)N)ccc2o1` [compound 80], for which the pest or weed control at 125 ppm in test [1], in test [2] and in test [3] was at least 75% throughout.

Regarding `N=C(NCCCOc1ccc(C(=N)N)c(F)c1)NCCCOc1ccc(C(=N)N)c(F)c1` [compound 82], the pest or weed control at 125 ppm in test [1], in test [2] and in test [3] was at least 75% each time.

`Cc1cc(C(=N)N)ccc1OCCCCNC(=N)NCCCCOc1ccc(C(=N)N)cc1C` [compound 84]: the pest or weed control at 125 ppm in test [1], in test [2] and in test [3] was at least 75% in each case.

Regarding `N=C(NCCCCOc1ccc(C(=N)N)cc1Cl)NCCCCOc1ccc(C(=N)N)cc1Cl` [compound 86], the pest or weed control at 125 ppm in test [1], in test [2] and in test [3] was at least 75% in each case.

As for `N=C(N)c1ccc(OCCCCCn2ccn(CCCCCOc3ccc(C(=N)N)cc3)c2=N)cc1` [compound 88], the pest or weed control at 125 ppm in test [1], in test [2] and in test [3] was at least 75% throughout.

Turning to `N=C(NCCCCCc1nc(C(=N)N)cs1)NCCCOc1ccc(C(=N)N)cc1` [compound 91], the pest or weed control at 125 ppm in test [1], in test [2] and in test [3] was at least 75% each time.

On to `N=C(N)c1ccc(OCCCCCn2ccn(CCOc3ccc(C(=N)N)cc3)c2=N)cc1` [compound 93], for which the pest or weed control at 125 ppm in test [1], in test [2] and in test [3] was at least 75% each time.

`N=C(N)c1csc(CCCCCn2ccn(CCCCCc3nc(C(=N)N)cs3)c2=N)n1` [compound 95]: the pest or weed control at 125 ppm in test [1] and in test [2] was at least 75% throughout.

As to `CNCCNC(=N)c1ccc(OCCCn2ccn(CCCOc3ccc(C(=N)NCCNC)cc3)c2=N)cc1` [compound 97], in test [1], the pest or weed control at 125 ppm was at least 75%.

As for `N=C(N)c1ccc(OCCCn2ccn(CCCOc3ccc(C(=N)N)cc3Cl)c2=N)c(Cl)c1` [compound 99], the pest or weed control at 125 ppm in test [1], in test [2] and in test [3] was at least 75% throughout.

For the compound `CNCCNC(=N)c1ccc(OCCCn2ccn(CCCOc3ccc(C(=N)N)cc3)c2=N)cc1` [compound 101], the pest or weed control at 125 ppm in test [1], in test [2] and in test [3] was at least 75% in each case.

`N=C(N)c1ccc(COCCCn2ccn(CCCOCc3ccc(C(=N)N)cc3)c2=N)cc1` [compound 161]: the pest or weed control at 125 ppm in test [1] and in test [2] was at least 75% throughout.

As to `N=C(NCCCOCc1ccc(C(=N)N)cc1)NCCCOCc1ccc(C(=N)N)cc1` [compound 175], the pest or weed control at 125 ppm in test [1] and in test [2] was at least 75% each time.

Turning to `N=C(NCCOCc1ccc(C(=N)N)cc1)NCCOCc1ccc(C(=N)N)cc1` [compound 226], the pest or weed control at 125 ppm in test [1] and in test [2] was at least 75% in each case.

`N=C(N)NCCCCCCCCNC(=N)NCCOc1ccc(C(=N)N)cc1` [compound 232]: the pest or weed control at 125 ppm in test [1] and in test [3] was at least 75% each time.

The compound `N=C(N)NCCCCCCCCNC(=N)NCCCc1ccc(C2=NCCCN2)cc1` [compound 271] displayed a pest or weed control at 125 ppm in test [1] of at least 75%.

For `N=c1[nH]ccn1CCCCCCCCn1ccn(CCCOc2ccc(C3=NCCCN3)cc2)c1=N` [compound 283], the pest or weed control at 125 ppm in test [1] and in test [2] was at least 75% throughout.

Take `N=C(N)NCCCCCCCNC(=N)NCCOc1ccc2cc(C3=NCCCN3)ccc2c1` [compound 290]: the pest or weed control at 125 ppm in test [1] and in test [3] was at least 75% each time.

`N=C(NCCCCCCCCNC1=NCCN1)NCCOc1ccc(C2=NCCCN2)cc1` [compound 294] showed a pest or weed control at 125 ppm in test [1] of at least 75%.

With `N=C(NCCCCCCCCNC1=NCCN1)NCCCOc1ccc(C2=NCCCN2)cc1` [compound 296], the pest or weed control at 125 ppm in test [1] and in test [2] was at least 75% throughout.
